The values below come from ChEMBL document CHEMBL2321873, “1-(4-Phenylpiperazin-1-yl)-2-(1H-pyrazol-1-yl)ethanones as novel CCR1 antagonists” (Bioorg Med Chem Lett, 2013).

SMILES strings stand for the structures. Activity calls are given as the source filed them. No cut-off for these calls is given here.

In data set [1] the target is T1, G protein-coupled receptor (Human herpesvirus 8) (UniProt Q76SF8).
T1 sequence (whole entry): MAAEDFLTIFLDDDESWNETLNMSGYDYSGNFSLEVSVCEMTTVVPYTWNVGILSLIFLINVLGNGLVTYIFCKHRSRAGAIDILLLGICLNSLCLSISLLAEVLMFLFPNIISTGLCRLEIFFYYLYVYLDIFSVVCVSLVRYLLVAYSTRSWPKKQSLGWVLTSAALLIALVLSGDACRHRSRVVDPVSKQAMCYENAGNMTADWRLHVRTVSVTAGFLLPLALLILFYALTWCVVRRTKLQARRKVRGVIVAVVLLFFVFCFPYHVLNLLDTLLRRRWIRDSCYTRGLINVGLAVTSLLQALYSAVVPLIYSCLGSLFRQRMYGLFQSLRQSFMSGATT
The experiment in a line: Binding affinity to HHV8 ORF74 at 10 uM by radioligand displacement assay. Conditions: Human gammaherpesvirus 8. A general note: Displacement assays read how much labelled ligand stays bound in the presence of the test substance.

For data set [2], the target named is Cytochrome P450 2C19 (Homo sapiens, UniProt P33261). The experiment in a line: Inhibition of CYP2C19 (unknown origin). Format: ADME.
Data set [3] deals with T2, CX3C chemokine receptor 1 (Homo sapiens) (UniProt P49238).
T2 sequence (whole entry): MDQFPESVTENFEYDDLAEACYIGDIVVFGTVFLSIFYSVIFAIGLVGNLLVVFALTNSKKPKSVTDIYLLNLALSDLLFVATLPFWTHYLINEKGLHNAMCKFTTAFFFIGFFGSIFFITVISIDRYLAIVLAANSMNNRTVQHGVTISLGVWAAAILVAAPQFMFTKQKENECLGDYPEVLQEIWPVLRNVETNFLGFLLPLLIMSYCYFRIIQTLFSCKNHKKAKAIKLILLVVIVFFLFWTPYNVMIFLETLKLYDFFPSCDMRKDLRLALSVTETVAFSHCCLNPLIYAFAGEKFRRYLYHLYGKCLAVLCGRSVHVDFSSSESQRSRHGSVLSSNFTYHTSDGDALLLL
The experiment in a line: Antagonist activity at CX3CR1 (unknown origin) assessed as inhibition of chemotaxis at 10 uM.

Data set [4] addresses C-C chemokine receptor type 8 (Homo sapiens) (UniProt P51685). Description: Binding affinity to CCR8 (unknown origin) at 10 uM by radioligand displacement assay.
The target in data set [5] is T3, C-C chemokine receptor type 4 (Homo sapiens) (UniProt P51679).
T3 sequence (whole entry): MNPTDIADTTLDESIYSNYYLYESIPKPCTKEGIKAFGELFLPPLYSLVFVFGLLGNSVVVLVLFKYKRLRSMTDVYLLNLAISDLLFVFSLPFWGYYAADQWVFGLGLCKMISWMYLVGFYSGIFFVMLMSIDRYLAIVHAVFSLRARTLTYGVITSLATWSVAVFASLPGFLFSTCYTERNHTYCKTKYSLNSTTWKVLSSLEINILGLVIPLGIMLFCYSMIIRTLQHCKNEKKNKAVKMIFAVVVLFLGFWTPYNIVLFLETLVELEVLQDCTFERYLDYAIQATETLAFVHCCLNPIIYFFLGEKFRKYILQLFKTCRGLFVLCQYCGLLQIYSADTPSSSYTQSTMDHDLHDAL
The experiment in a line: Antagonist activity at CCR4 (unknown origin) assessed as inhibition of calcium flux at 10 uM. It is filed as functional. For orientation: A change in cytosolic calcium serves as a functional read-out for many receptors and channels.

In data set [6] the target is Voltage-gated inwardly rectifying potassium channel KCNH2 (Homo sapiens, UniProt Q12809). The experiment in a line: Binding affinity to human ERG by patch clamp assay.
In data set [7] the target is T4, C-X-C chemokine receptor type 2 (Homo sapiens) (UniProt P25025).
T4 sequence (whole entry): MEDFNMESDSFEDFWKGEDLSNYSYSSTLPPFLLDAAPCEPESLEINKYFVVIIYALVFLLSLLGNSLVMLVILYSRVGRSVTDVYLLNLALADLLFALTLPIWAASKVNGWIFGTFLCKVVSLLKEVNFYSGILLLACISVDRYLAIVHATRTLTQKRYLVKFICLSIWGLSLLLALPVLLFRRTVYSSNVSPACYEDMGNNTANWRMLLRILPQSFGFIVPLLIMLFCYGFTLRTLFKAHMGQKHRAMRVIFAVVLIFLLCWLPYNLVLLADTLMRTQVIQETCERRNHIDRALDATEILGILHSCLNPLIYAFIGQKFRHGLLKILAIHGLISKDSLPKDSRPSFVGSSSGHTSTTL
Description: Antagonist activity at CXCR2 (unknown origin) assessed as inhibition of calcium flux at 10 uM. It is filed as functional.

The target in data set [8] is Cytochrome P450 3A4 (Homo sapiens, UniProt P08684). Description: Competitive inhibition of CYP3A4 (unknown origin). It is filed as ADME.
Data set [9] deals with Salmonella typhimurium. The experiment in a line: Genotoxicity in Salmonella typhimurium by Ames test in absence of S9 fractions. The note with it: salmonella enterica subsp. enterica serovar typhimurium. Format: toxicity, organism-based.
Data set [10] addresses T1, G protein-coupled receptor (Human herpesvirus 8). The experiment in a line: Antagonist activity at HHV8 ORF74 assessed as inhibition of chemotaxis at 10 uM. Conditions: Human gammaherpesvirus 8.
For data set [11] the target is unchanged. The experiment in a line: Antagonist activity at HHV8 ORF74 assessed as inhibition of calcium flux at 10 uM. It is filed as functional. Conditions: Human gammaherpesvirus 8.
Data set [12] addresses C-C chemokine receptor type 8 (Homo sapiens) (UniProt P51685). Description: Antagonist activity at CCR8 (unknown origin) assessed as inhibition of calcium flux at 10 uM. It is filed as functional.
Data set [13] has the same target. The experiment in a line: Antagonist activity at CCR8 (unknown origin) assessed as inhibition of chemotaxis at 10 uM.
Data set [14] can be described thus: Oral bioavailability in Sprague-Dawley rat at 5 mg/kg. It is filed as ADME, organism-based. Conditions: in vivo.
For data set [15], the target named is T5, C-X-C chemokine receptor type 5 (Homo sapiens) (UniProt P32302).
T5 sequence (whole entry): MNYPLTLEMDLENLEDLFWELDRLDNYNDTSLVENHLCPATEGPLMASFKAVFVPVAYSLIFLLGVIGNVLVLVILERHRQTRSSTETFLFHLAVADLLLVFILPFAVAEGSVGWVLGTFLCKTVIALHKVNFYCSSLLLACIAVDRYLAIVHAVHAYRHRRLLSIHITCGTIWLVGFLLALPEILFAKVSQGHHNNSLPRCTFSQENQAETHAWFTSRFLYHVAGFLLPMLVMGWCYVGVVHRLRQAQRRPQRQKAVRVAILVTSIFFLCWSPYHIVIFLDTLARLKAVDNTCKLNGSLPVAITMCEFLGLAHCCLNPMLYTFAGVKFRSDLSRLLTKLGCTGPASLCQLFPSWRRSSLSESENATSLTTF
Description: Binding affinity to CXCR5 (unknown origin) at 10 uM by radioligand displacement assay.

The target in data set [16] is T6, C-C chemokine receptor type 10 (Homo sapiens) (UniProt P46092).
T6 sequence (whole entry): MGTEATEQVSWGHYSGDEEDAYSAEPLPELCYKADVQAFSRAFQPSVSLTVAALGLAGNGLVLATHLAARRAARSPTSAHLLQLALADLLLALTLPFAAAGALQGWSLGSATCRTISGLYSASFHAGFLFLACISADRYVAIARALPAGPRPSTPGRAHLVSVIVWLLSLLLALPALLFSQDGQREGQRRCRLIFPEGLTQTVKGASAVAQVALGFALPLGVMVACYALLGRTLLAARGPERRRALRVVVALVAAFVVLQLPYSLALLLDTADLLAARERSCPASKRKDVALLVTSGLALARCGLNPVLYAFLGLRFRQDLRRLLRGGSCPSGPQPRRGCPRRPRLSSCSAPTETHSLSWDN
Description: Antagonist activity at CCR10 (unknown origin) assessed as inhibition of chemotaxis at 10 uM.

Chain of C-C chemokine receptor type 8 (Homo sapiens) (P51685 whole entry): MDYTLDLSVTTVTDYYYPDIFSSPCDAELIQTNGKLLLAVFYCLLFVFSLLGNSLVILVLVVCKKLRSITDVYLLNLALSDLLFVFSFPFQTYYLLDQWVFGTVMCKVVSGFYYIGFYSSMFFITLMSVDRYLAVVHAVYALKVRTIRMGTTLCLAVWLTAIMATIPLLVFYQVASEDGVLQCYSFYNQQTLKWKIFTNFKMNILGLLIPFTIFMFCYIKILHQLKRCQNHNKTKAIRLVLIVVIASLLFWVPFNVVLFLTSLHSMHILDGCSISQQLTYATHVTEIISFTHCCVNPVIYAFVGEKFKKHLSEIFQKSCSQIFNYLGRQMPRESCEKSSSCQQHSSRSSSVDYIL
Chain of Cytochrome P450 3A4 (P08684 whole entry): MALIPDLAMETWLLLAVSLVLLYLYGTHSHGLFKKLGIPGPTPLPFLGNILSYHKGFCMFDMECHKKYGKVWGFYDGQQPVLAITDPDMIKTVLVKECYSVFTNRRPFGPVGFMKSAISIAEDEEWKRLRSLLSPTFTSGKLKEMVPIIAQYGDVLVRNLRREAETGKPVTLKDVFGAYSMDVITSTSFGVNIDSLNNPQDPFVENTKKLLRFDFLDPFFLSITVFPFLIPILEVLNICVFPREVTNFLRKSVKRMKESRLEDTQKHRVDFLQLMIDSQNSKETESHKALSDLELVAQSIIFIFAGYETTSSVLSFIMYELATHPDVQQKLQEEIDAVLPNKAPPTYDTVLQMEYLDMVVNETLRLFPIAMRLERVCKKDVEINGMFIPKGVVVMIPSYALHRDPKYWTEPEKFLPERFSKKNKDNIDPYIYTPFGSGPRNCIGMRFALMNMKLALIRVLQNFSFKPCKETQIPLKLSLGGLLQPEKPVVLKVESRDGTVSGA
Chain of Voltage-gated inwardly rectifying potassium channel KCNH2 (Q12809 whole entry): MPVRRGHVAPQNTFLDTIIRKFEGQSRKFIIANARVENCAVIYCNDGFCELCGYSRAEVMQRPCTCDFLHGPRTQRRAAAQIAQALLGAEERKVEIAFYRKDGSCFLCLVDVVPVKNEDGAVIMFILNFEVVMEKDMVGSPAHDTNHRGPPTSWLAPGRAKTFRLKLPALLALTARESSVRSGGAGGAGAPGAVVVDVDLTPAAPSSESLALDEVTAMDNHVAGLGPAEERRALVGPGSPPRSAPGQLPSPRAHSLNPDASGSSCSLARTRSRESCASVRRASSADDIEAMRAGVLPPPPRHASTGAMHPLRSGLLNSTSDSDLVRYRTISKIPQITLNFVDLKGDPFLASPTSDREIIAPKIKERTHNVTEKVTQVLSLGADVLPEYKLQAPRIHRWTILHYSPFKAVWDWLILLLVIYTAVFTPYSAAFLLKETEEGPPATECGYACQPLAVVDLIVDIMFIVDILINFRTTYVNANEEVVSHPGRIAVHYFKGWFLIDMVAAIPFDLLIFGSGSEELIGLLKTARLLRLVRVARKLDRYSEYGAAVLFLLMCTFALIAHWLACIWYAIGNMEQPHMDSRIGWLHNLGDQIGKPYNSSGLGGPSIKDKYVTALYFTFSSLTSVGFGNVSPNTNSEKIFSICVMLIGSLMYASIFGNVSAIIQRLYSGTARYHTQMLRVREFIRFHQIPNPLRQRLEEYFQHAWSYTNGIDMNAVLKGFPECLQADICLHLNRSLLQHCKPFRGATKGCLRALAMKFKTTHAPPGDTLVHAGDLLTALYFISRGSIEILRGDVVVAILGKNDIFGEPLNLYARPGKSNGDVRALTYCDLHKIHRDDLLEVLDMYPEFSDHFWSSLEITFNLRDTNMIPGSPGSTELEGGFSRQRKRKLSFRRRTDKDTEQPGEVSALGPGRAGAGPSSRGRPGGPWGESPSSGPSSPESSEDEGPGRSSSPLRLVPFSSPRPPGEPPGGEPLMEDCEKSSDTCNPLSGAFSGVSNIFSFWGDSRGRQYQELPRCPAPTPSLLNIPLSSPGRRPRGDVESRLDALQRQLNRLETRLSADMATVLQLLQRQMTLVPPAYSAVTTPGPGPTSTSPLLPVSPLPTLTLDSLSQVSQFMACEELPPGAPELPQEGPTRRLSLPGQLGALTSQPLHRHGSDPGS
Chain of Cytochrome P450 2C19 (P33261 whole entry): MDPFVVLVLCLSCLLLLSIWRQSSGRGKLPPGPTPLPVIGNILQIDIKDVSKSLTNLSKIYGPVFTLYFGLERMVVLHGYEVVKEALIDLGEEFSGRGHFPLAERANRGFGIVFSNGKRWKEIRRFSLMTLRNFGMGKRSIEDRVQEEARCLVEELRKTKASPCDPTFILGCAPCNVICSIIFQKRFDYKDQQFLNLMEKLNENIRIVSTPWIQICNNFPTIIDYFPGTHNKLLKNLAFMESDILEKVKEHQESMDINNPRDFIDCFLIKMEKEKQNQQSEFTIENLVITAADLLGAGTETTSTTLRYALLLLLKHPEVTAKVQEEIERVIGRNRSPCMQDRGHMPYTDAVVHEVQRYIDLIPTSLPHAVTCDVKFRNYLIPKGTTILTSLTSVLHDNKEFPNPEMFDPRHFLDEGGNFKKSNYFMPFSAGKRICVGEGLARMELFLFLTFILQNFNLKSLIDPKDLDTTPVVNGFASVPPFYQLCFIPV

What is called IC50 is the concentration at which inhibition is half-maximal. Usually bioavailability stands for dose-corrected exposure relative to a reference, in per cent. A low value points to little systemic uptake. For the molecule `COc1cc(N2CCN(C(=O)Cn3nc(C(F)(F)F)c(Cl)c3C)CC2)ccc1Cl`, the result in data set [1], in data set [4] and in [15] was inactive. In addition, the IC50 in data set [2] is 6 µM; in [6], 16 µM; in [8] it was greater than 10 µM. For the same molecule, the inhibition result in data set [3], in data set [5], in data set [7], in [10], in data set [11] and in [12] was “inactive” in each case. For the same molecule, the inhibition result in [13] and in data set [16] was “inactive” in each case. For the same molecule, the Activity result in [9] is “Non-toxic”. The molecule further had a bioavailability in [14] of 52%.
